{
  "source": "patent US20160362408A1",
  "about": "(Bayer Pharma Aktiengesellschaft, priority 2013, published 2016)",
  "target": "T1, recombinant guanylate cyclase reporter cell line (Rattus norvegicus, UniProt P19686+P20595)",
  "T1 construct": "expressed in transfected cells",
  "T1 sequence (P19686 1-690)": "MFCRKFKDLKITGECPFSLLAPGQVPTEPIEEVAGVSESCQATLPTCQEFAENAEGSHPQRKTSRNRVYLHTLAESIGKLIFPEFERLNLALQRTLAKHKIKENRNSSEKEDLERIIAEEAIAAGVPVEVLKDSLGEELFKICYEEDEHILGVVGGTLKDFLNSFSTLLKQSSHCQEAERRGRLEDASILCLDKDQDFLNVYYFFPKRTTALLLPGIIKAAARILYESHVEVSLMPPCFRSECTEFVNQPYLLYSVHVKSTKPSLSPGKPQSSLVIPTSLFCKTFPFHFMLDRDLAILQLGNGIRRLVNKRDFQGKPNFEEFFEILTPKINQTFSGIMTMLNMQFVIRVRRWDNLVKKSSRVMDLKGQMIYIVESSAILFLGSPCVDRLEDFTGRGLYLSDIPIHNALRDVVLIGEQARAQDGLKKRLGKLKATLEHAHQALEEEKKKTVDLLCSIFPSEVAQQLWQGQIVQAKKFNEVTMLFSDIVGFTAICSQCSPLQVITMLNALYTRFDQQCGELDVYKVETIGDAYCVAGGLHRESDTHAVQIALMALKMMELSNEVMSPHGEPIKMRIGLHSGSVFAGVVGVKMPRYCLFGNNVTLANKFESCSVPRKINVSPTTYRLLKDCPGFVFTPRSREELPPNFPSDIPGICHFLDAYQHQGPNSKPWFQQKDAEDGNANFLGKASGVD",
  "T1 sequence (P20595 1-619)": "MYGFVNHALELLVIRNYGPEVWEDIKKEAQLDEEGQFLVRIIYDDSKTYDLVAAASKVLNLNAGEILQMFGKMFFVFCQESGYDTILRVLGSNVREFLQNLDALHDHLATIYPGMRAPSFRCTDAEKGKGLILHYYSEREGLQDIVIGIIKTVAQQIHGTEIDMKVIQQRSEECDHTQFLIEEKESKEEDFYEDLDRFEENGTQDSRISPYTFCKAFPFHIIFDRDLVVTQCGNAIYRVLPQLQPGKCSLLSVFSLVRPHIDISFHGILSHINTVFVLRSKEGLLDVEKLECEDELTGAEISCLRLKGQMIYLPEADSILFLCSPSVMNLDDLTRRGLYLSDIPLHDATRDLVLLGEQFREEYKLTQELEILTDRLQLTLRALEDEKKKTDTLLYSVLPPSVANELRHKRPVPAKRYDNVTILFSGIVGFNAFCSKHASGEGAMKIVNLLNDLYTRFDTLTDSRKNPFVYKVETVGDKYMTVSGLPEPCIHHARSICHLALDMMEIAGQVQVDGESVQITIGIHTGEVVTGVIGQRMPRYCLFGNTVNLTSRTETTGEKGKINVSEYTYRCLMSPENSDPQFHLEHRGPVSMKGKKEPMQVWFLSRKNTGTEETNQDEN",
  "assay": "Effect on a recombinant guanylate cyclase reporter cell line",
  "format": "cell-based",
  "conditions": "MEC = minimum effective concentration; in some cases mean values for individual determinations",
  "outline": "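Compounds tested in a recombinant guanylate cyclase reporter cell line per a published method. Potency expressed as minimum effective concentration (MEC), sometimes as mean of individual determinations.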",
  "note": "Where a name gives a salt, the structure may show the parent alone.",
  "data": [
    {"smiles": "Cc1n[nH]c(C(F)(F)F)c1NC(=O)c1c(C)nc2c(OCc3c(F)cccc3F)cc(Cl)cn12", "note": "[Example 40, 6-chloro-8-[(2,6-difluorobenzyl)oxy]-2-methyl-N-[3-methyl-5-(trifluoromethyl)-1H-pyrazol-4-yl]imidazo[1,2-a]pyridine-3-carboxamide]", "values": [
      {"measurement": "MEC", "result": 0.03, "unit": "µM"}
    ]},
    {"smiles": "Cc1cc(OCc2c(F)cccc2F)c2nc(C)c(C(=O)Nc3cnn(CC(F)(F)F)c3)n2c1", "note": "[Example 85]", "values": [
      {"measurement": "MEC", "result": 0.1, "unit": "µM"}
    ]},
    {"smiles": "Cc1nc2c(OCc3c(F)cccc3F)cccn2c1C(=O)Nc1cccc(N2CCN(C)CC2)c1", "note": "[Example 99]", "values": [
      {"measurement": "MEC", "result": 3.0, "unit": "µM"}
    ]},
    {"smiles": "Cc1nc2c(OCc3c(F)cccc3F)cc(Cl)cn2c1C(=O)Nc1cnn(CCF)c1", "note": "[Example 141, 6-chloro-8-[(2,6-difluorobenzyl)oxy]-N-[1-(2-fluoroethyl)-1H-pyrazol-4-yl]-2-methylimidazo[1,2-a]pyridine-3-carboxamide]", "values": [
      {"measurement": "MEC", "result": 1.0, "unit": "µM"}
    ]},
    {"smiles": "Cc1nc2c(OCc3c(F)cccc3F)cccn2c1C(=O)Nc1cnn(CC(N)=O)c1", "note": "[Example 25, N-[1-(2-amino-2-oxoethyl)-1H-pyrazol-4-yl]-8-[(2,6-difluorobenzyl)oxy]-2-methylimidazo[1,2-a]pyridine-3-carboxamide]", "values": [
      {"measurement": "MEC", "result": 3.0, "unit": "µM"}
    ]},
    {"smiles": "Cc1nn(C)cc1NC(=O)c1c(C)nc2c(OCc3c(F)cccc3F)cccn12", "note": "[Example 4]", "values": [
      {"measurement": "MEC", "result": 0.3, "unit": "µM"}
    ]},
    {"smiles": "Cc1cc(OCc2c(F)cccc2F)c2nc(C)c(C(=O)Nc3cccc(S(C)(=O)=O)c3)n2c1", "note": "[Example 152, 8-[(2,6-Difluorobenzyl)oxy]-2,6-dimethyl-N-[3-(methylsulphonyl)phenyl]imidazo[1,2-a]pyridine-3-carboxamide]", "values": [
      {"measurement": "MEC", "result": 1.0, "unit": "µM"}
    ]},
    {"smiles": "Cc1nc2c(OCc3c(F)cccc3F)cccn2c1C(=O)Nc1ccnc2cc(C(F)(F)F)ccc12", "note": "[Example 100]", "values": [
      {"measurement": "MEC", "result": 1.65, "unit": "µM"}
    ]},
    {"smiles": "Cc1nc2c(OCc3c(F)cccc3F)cccn2c1C(=O)Nc1c(C(C)(C)O)n[nH]c1C", "note": "[Example 88]", "values": [
      {"measurement": "MEC", "result": 0.65, "unit": "µM"}
    ]},
    {"smiles": "CCn1nc(C)c(NC(=O)c2c(C)nc3c(OCc4c(F)cccc4F)cccn23)c1C", "note": "[Example 38, 8-[(2,6-Difluorobenzyl)oxy]-N-(1-ethyl-3,5-dimethyl-1H-pyrazol-4-yl)-2-methylimidazo[1,2-a]pyridine-3-carboxamide]", "values": [
      {"measurement": "MEC", "result": 1.0, "unit": "µM"}
    ]},
    {"smiles": "Cc1nc2c(OCc3c(F)cccc3F)cccn2c1C(=O)Nc1c(C(F)(F)F)n[nH]c1C", "note": "[Example 76, 8-[(2,6-Difluorobenzyl)oxy]-2-methyl-N-[5-methyl-3-(trifluoromethyl)-1H-pyrazol-4-yl]imidazo[1,2-a]pyridine-3-carboxamide]", "values": [
      {"measurement": "MEC", "result": 0.1, "unit": "µM"}
    ]},
    {"smiles": "Cc1nc2c(OCc3c(F)cccc3F)cccn2c1C(=O)Nc1ccccc1", "note": "[Example 11]", "values": [
      {"measurement": "MEC", "result": 0.3, "unit": "µM"}
    ]},
    {"smiles": "Cc1nc2c(OCc3c(F)cccc3F)cccn2c1C(=O)Nc1ccc(N2CCNCC2)c(C(F)(F)F)c1", "note": "[Example 107, 8-[(2,6-difluorobenzyl)oxy]-2-methyl-N-[4-(piperazin-1-yl)-3-(trifluoromethyl)phenyl]imidazo[1,2-a]pyridine-3-carboxamide]", "values": [
      {"measurement": "MEC", "result": 1.0, "unit": "µM"}
    ]},
    {"smiles": "Cc1nc2c(OCc3c(F)cccc3F)cccn2c1C(=O)Nc1cc(C)n(C)n1", "note": "[Example 122, 8-[(2,6-difluorobenzyl)oxy]-N-(1,5-dimethyl-1H-pyrazol-3-yl)-2-methylimidazo[1,2-a] pyridine-3-carboxamide]", "values": [
      {"measurement": "MEC", "result": 3.0, "unit": "µM"}
    ]},
    {"smiles": "Cc1nc2c(OCc3c(F)cccc3F)cccn2c1C(=O)Nc1cccc(C(C)O)c1", "note": "(stereo not shown) [Example 17]", "values": [
      {"measurement": "MEC", "result": 0.3, "unit": "µM"}
    ]},
    {"smiles": "Cc1nc2c(OCc3c(F)cccc3F)cccn2c1C(=O)Nc1cnn(CCN2CCOCC2)c1", "note": "[Example 132, 8-[(2,6-difluorobenzyl)oxy]-2-methyl-N-{1-[2-(morpholin-4-yl)ethyl]-1H-pyrazol-4-yl} imidazo[1,2-a]pyridine-3-carboxamide]", "values": [
      {"measurement": "MEC", "result": 1.0, "unit": "µM"}
    ]},
    {"smiles": "Cc1noc(C)c1NC(=O)c1c(C)nc2c(OCc3c(F)cccc3F)cc(Cl)cn12", "note": "[Example 39, 6-Chloro-8-[(2,6-difluorobenzyl)oxy]-N-(3,5-dimethyl-1,2-oxazol-4-yl)-2-methylimidazo[1,2-a]pyridine-3-carboxamide]", "values": [
      {"measurement": "MEC", "result": 1.0, "unit": "µM"}
    ]},
    {"smiles": "Cc1cc(NC(=O)c2c(C)nc3c(OCc4c(F)cccc4F)cccn23)c2ccccc2n1", "note": "[Example 69]", "values": [
      {"measurement": "MEC", "result": 0.55, "unit": "µM"}
    ]},
    {"smiles": "Cc1nc2c(OCc3c(F)cccc3F)cccn2c1C(=O)Nc1cccc(Cl)c1C", "note": "[Example 14]", "values": [
      {"measurement": "MEC", "result": 0.3, "unit": "µM"}
    ]},
    {"smiles": "CCn1ccc(NC(=O)c2c(C)nc3c(OCc4c(F)cccc4F)cccn23)n1", "note": "[Example 121, 8-[(2,6-difluorobenzyl)oxy]-N-(1-ethyl-1H-pyrazol-3-yl)-2-methylimidazo[1,2-a] pyridine-3-carboxamide]", "values": [
      {"measurement": "MEC", "result": 1.0, "unit": "µM"}
    ]},
    {"smiles": "Cc1nc2c(OCc3c(F)cccc3F)cccn2c1C(=O)Nc1cnn(COCC(F)(F)F)c1", "note": "[Example 90]", "values": [
      {"measurement": "MEC", "result": 0.3, "unit": "µM"}
    ]},
    {"smiles": "Cc1nc2c(OCc3c(F)cccc3F)cc(Cl)cn2c1C(=O)Nc1ccc(N2CCNCC2)c(F)c1", "note": "[Example 109, 6-chloro-8-[(2,6-difluorobenzyl)oxy]-N-[3-fluoro-4-(piperazin-1-yl)phenyl]-2-methylimidazo[1,2-a]pyridine-3-carboxamide]", "values": [
      {"measurement": "MEC", "result": 3.0, "unit": "µM"}
    ]},
    {"smiles": "Cc1cc2c(NC(=O)c3c(C)nc4c(OCc5c(F)cccc5F)cccn34)cccc2nn1", "note": "[Example 70]", "values": [
      {"measurement": "MEC", "result": 0.3, "unit": "µM"}
    ]},
    {"smiles": "Cc1nc2c(OCc3c(F)cccc3F)cc(Cl)cn2c1C(=O)Nc1cnn2ccccc12", "note": "[Example 82]", "values": [
      {"measurement": "MEC", "result": 0.3, "unit": "µM"}
    ]},
    {"smiles": "Cc1nc2c(OCc3c(F)cccc3F)cccn2c1C(=O)Nc1cn[nH]c1", "note": "[Example 31, 8-[(2,6-difluorobenzyl)oxy]-2-methyl-N-(1H-pyrazol-4-yl)imidazo[1,2-a]pyridine-3-carboxamide]", "values": [
      {"measurement": "MEC", "result": 1.0, "unit": "µM"}
    ]},
    {"smiles": "Cc1nc2c(OCc3c(F)cccc3F)cccn2c1C(=O)Nc1cnn(CCN2CCC(F)(F)CC2)c1", "note": "[Example 127, 8-[(2,6-Difluorobenzyl)oxy]-N-{1-[2-(4,4-difluoropiperidin-1-yl)ethyl]-1H-pyrazol-4-yl}-2-methylimidazo[1,2-a]pyridine-3-carboxamide]", "values": [
      {"measurement": "MEC", "result": 1.0, "unit": "µM"}
    ]},
    {"smiles": "Cc1ccc(F)c(NC(=O)c2c(C)nc3c(OCc4c(F)cccc4F)cccn23)c1", "note": "[Example 9]", "values": [
      {"measurement": "MEC", "result": 0.3, "unit": "µM"}
    ]},
    {"smiles": "Cc1nc2c(OCc3c(F)cccc3F)cccn2c1C(=O)Nc1cnn(CCOS(N)(=O)=O)c1", "note": "[Example 139, 2-{4-[({8-[(2,6-Difluorobenzyl)oxy]-2-methylimidazo[1,2-a]pyridin-3-yl}carbonyl)amino]-1H-pyrazol-1-yl}ethyl sulphamate trifluoroacetate]", "values": [
      {"measurement": "MEC", "result": 3.0, "unit": "µM"}
    ]}
  ]
}
